Experimental findings from the supplement of paper PMC10307832 are described below.

Holding throughout (assay): relative viability (nuclei count vs DMSO), 5 days (fraction); higher = more cells survive
Compound in the assay “Lestaurtinib + Dasatinib”: C[C@]12O[C@H](C[C@]1(O)CO)n1c3ccccc3c3c4c(c5c6ccccc6n2c5c31)CNC4=O [Lestaurtinib] + Cc1nc(Nc2ncc(C(=O)Nc3c(C)cccc3Cl)s2)cc(N2CCN(CCO)CC2)n1 [Dasatinib] (partner 0.075 µM)
The method in brief: (§1)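 Lung cancer cell lines in 1536-well plates got either a single drug or a fixed anchor-drug dose together with five library-drug doses (not always all listed) in √10 steps, by pin tool, on the day after seeding. Nuclei were counted after 5 days, and relative viability is the treated-to-vehicle ratio of nuclei counts. Values are medians of duplicate plates.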

Compound in assay [1]: C[C@]12O[C@H](C[C@]1(O)CO)n1c3ccccc3c3c4c(c5c6ccccc6n2c5c31)CNC4=O [Lestaurtinib] + CC(=O)c1c(C)c2cnc(Nc3ccc(N4CCNCC4)cn3)nc2n(C2CCCC2)c1=O [Palbociclib] (partner 0.5 µM)
In short, it runs like this: as §1

Compound in assay [2]: C1/C(=C\C2=CC=CS2)/C(=O)/C(=C/C3=CC=CS3)/C1 + Nc1nc2[nH]cc(CCc3ccc(C(=O)N[C@@H](CCC(=O)O)C(=O)O)cc3)c2c(=O)[nH]1 [Pemetrexed] (partner 0.2 µM)
The method in brief:
as §1

Compound in assay [3]: C[C@]12O[C@H](C[C@]1(O)CO)n1c3ccccc3c3c4c(c5c6ccccc6n2c5c31)CNC4=O [Lestaurtinib] + Nc1nc2[nH]cc(CCc3ccc(C(=O)N[C@@H](CCC(=O)O)C(=O)O)cc3)c2c(=O)[nH]1 [Pemetrexed] (partner 0.2 µM)
In short, it runs like this:
as §1

Take UMC-11: the relative viability with Lestaurtinib + Dasatinib (first compound 0.005 µM) came to 0.543; with Lestaurtinib + Dasatinib (first compound 0.01581 µM), 0.501; with Lestaurtinib + Dasatinib (first compound 0.05 µM) it was 0.247; with Lestaurtinib + Dasatinib (first compound 0.1581 µM), 0.231; in the assay with Lestaurtinib + Dasatinib (first compound 0.5 µM) it was 0.146; in assay [1] (first compound 0.005 µM), 0.344. Also, the relative viability amounted to 0.294 in assay [1] (first compound 0.01581 µM); 0.33 in assay [1] (first compound 0.05 µM); 0.215 in assay [1] (first compound 0.1581 µM); 0.198 in assay [1] (first compound 0.5 µM); 0.816 in assay [2] (first compound 0.2 µM); 0.817 in assay [2] (first compound 0.6325 µM). The relative viability worked out at 0.789 in assay [2] (first compound 2 µM); 0.563 in assay [2] (first compound 6.325 µM); 0.824 in assay [2] (first compound 20 µM); 0.923 in assay [3] (first compound 0.005 µM); 0.859 in assay [3] (first compound 0.01581 µM); 0.436 in assay [3] (first compound 0.05 µM). The relative viability in assay [3] (first compound 0.1581 µM) is 0.256; in assay [3] (first compound 0.5 µM), 0.176.
